Laboratory results reported in patent publication US8987193B2, “Nisin derivatives and the use thereof” (University College Cork—National University of Ireland, Cork, priority 2008, dated 2015).
Read-outs that look alike come from different tables or passages of the source. Ends that are not written are not given here.

What was measured:
Staph. aureus DPC5245 [1] = test: Deferred antagonism assay; type: cell-based; settings: producing strain; diameter of zone minus 5 mm; average of duplicates; St. aureus DPC5245
Outline: (§1)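 Producer strains replicated on GM17 agar, grown overnight, then overlaid with soft agar (0.75% w/v) seeded with indicator strain. Zone size = clearing diameter minus 5 mm growth diameter, relative to NZ9800 pCI372nisA control; mean of duplicates.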

[2] = test system: Staph. aureus ST528 (MRSA); test: Deferred antagonism assay; type: cell-based; settings: producing strain, diameter of zone minus diameter of bacterial growth (5 mm), average of duplicates
Outline: as §1

[3] = test system: Strep. agalactiae ATCC13813; test: Deferred antagonism assay; type: cell-based; settings: producing strain, diameter of zone minus 5 mm, average of duplicates
L. monocytogenes CBC1 = test: Deferred antagonism assay; type: cell-based, Listeria monocytogenes; parameters: key: + = Enhanced bioactivity relative to control; − = Bioactivity equal to or less than control; NA = no activity evident; settings: producing strain; L. mono CBC1
Outline: (§2)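 Well-diffusion testing of purified nisin variants in 0.005% acetic acid, serially diluted, 37° C overnight; AU/ml = reciprocal of last dilution with definite zone × 20. Deferred antagonism: overnight GM17 colonies overlaid with seeded soft agar (0.75%); zone = clearing diameter minus 5 mm.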

L. monocytogenes CBC2 = test: Deferred antagonism assay; type: cell-based, Listeria monocytogenes; parameters: key: + = Enhanced bioactivity relative to control; − = Bioactivity equal to or less than control; NA = no activity evident; settings: producing strain; L. mono CBC2
Outline: as §2

L. monocytogenes CBC3 = test: Deferred antagonism assay; type: cell-based, Listeria monocytogenes; parameters: key: + = Enhanced bioactivity relative to control; − = Bioactivity equal to or less than control; NA = no activity evident; settings: producing strain; L. mono CBC3
Outline: as §2

L. lactis CBC7 = test: Deferred antagonism assay; type: cell-based; parameters: key: + = Enhanced bioactivity relative to control; − = Bioactivity equal to or less than control; NA = no activity evident; settings: producing strain
Outline: as §2

L. lactis CBC8 = test: Deferred antagonism assay; type: cell-based; parameters: key: + = Enhanced bioactivity relative to control; − = Bioactivity equal to or less than control; NA = no activity evident; settings: producing strain
Outline: as §2

S. aureus CBC4 = test: Deferred antagonism assay; type: cell-based; parameters: key: + = Enhanced bioactivity relative to control; − = Bioactivity equal to or less than control; NA = no activity evident; settings: producing strain
Outline: as §2

C. sporogenes CBC5 = test: Deferred antagonism assay; type: cell-based, Clostridium sporogenes; parameters: key: + = Enhanced bioactivity relative to control; − = Bioactivity equal to or less than control; NA = no activity evident; settings: producing strain
L. plantarum CBC6 = test: Deferred antagonism assay; type: cell-based, Lactobacillus plantarum; parameters: key: + = Enhanced bioactivity relative to control; − = Bioactivity equal to or less than control; NA = no activity evident; settings: producing strain
Outline: as §2

L. lactis HP = test: Activity of concentrated peptide preparations; type: cell-based; settings: data not shown
Description: (§3) The most common post-translational modifications of lantibiotics involve the dehydration of serine to dehydroalanine (Dha) and of threonine to dehydrobutyrine (Dhb). These dehydrated residues interact with cysteine to form intramolecular lanthionine and β-methyllanthionine bridges, respectively.

Staph. aureus DPC5245 [4] = test: Activity of concentrated peptide preparations; type: cell-based; settings: data not shown
Description: as §3

[5] = test system: Strep. agalactiae ATCC13813; test: Activity of concentrated peptide preparations; type: cell-based; settings: data not shown
Description: as §3

indicator strains = test: Deferred antagonism assays, various indicator strains (summary); type: cell-based; settings: for Strain(s) against which the derivative (producing strain) displays enhanced bioactivity: relative to nisin A-producing control, value = strains listed
Outline: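 Producer strains were replicated on GM17 or GM17 x-gal agar, grown overnight, then overlaid with GM17, BHI, TS or MH soft agar (0.75% w/v) seeded with the indicator strain. Zone size was taken as the clearing diameter minus the diameter of bacterial growth (5 mm).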

[6] = test system: Strep. agalactiae ATCC13813; test: Deferred antagonism assay; type: cell-based; settings: chromosomal replacement strains; Strep. agalactiae ATCC 13813
Strep. pneumoniae = settings: cited from earlier work

Row | Substance | zone size relative to that of the NZ9800 pCI372nisA control (Staph. aureus DPC5245 [1]) | zone size relative to that of the NZ9800 pCI372nisA control [2] | zone size relative to that of the NZ9800 pCI372nisA control [3] | Bioactivity relative to control (L. monocytogenes CBC1) | Bioactivity relative to control (L. monocytogenes CBC2) | Bioactivity relative to control (L. monocytogenes CBC3) | Bioactivity relative to control (L. lactis CBC7) | Bioactivity relative to control (L. lactis CBC8) | Bioactivity relative to control (S. aureus CBC4) | Bioactivity relative to control (C. sporogenes CBC5) | Bioactivity relative to control (L. plantarum CBC6) | activity relative to the wild-type peptide (L. lactis HP) | activity relative to the wild-type peptide (Staph. aureus DPC5245 [4]) | activity relative to the wild-type peptide [5] | Strain(s) against which the derivative (producing strain) displays enhanced bioactivity (indicator strains) | bacteriocin production/bioactivity relative to L. lactis NZ9700 [6] | bioactivity of the producing strain, in words (indicator strains; in general / against the strains tested) | minimum inhibitory concentration (MIC) (Strep. pneumoniae; penicillin-susceptible strain before serial exposure to nisin) | minimum inhibitory concentration (MIC) (Strep. pneumoniae; stable nisin-resistant mutants after serial exposure to nisin (1 mg/L))
1 | M21C: nisin A derivative, hinge substitution M21C (ITSISLCTPGCKTGALMGCNCKTATCHCSIHVSK; cysteine pairing not given here; also: lantibiotic nisin-A; UniProt P13068 24-57, looked up, variant M21C) | 0% | 0% | 0% | − | − | − | − | − | − | − | − | drastically reduced | undetectable | undetectable |  |  |  |  | 
2 | N20C: nisin A derivative, hinge substitution N20C (ITSISLCTPGCKTGALMGCCMKTATCHCSIHVSK; cysteine pairing not given here; also: lantibiotic nisin-A; UniProt P13068 24-57, looked up, variant N20C) | 0% | 0% | 0% |  |  |  |  |  |  |  |  | drastically reduced | undetectable | undetectable |  |  |  |  | 
3 | NisinA K22S (ITSISLCTPGCKTGALMGCNMSTATCHCSIHVSK; not fully specified; also: lantibiotic nisin: dehydrated residues and thioether rings not placed; UniProt P13068 24-57, looked up, variant K22S) [nisin A derivative, hinge substitution K22S] | 124% | 154% | 142% | − | + | − | − | + | − | − | − |  |  |  | Strep. agalactiae ATCC13813, Staph. aureus ST528 and Staph. aureus DPC5245 and L. monocytogenes CBC2 and CBC8 and L. lactis CBC8 and L. monocytogenes CBC2, L. lactis CBC8, S. aureus ST528 | enhanced |  |  | 
4 | NisinA N20A | 69% | 60.5% | 52% | − | − | − | − | − | − | + | − |  |  |  | C. sporogenes CBC5 |  |  |  | 
5 | NisinA N20F (ITSISLCTPGCKTGALMGCFMKTATCHCSIHVSK; not fully specified; also: lantibiotic nisin: dehydrated residues and thioether rings not placed; UniProt P13068 24-57, looked up, variant N20F) [nisin A derivative, hinge substitution N20F] | 20.5% | 11.25% | 15% | − | − | − | + | − | − | − | − |  |  |  | L. lactis CBC7 |  |  |  | 
6 | NisinA N20H (ITSISLCTPGCKTGALMGCHMKTATCHCSIHVSK; not fully specified; also: lantibiotic nisin: dehydrated residues and thioether rings not placed; UniProt P13068 24-57, looked up, variant N20H) [nisin A derivative, hinge substitution N20H] | 95% | 74.5% | 59.5% | − | − | + | − | − | + | + | − |  |  |  | L. monocytogenes CBC3, S. aureus CBC4 and C. sporogenes CBC5 |  |  |  | 
7 | NisinA N20R (ITSISLCTPGCKTGALMGCRMKTATCHCSIHVSK; not fully specified; also: lantibiotic nisin: dehydrated residues and thioether rings not placed; UniProt P13068 24-57, looked up, variant N20R) [nisin A derivative, hinge substitution N20R] | 53.5% | 0% | 19% | − | − | − | − | − | − | + | − |  |  |  | C. sporogenes CBC5 |  | greatly reduced bioactivities |  | 
8 | NisinA N20S (ITSISLCTPGCKTGALMGCSMKTATCHCSIHVSK; not fully specified; also: lantibiotic nisin: dehydrated residues and thioether rings not placed; UniProt P13068 24-57, looked up, variant N20S) [nisin A derivative, hinge substitution N20S] | 87.5% | 83.5% | 72% | − | + | − | − | − | + | + | − |  |  |  | L. monocytogenes CBC2, Staph. aureus CBC4 and C. sporogenes CBC5 and L. monocytogenes CBC2, S. aureus CBC4 and L. monocytogenes CBC2, S. aureus CBC4, C. sporogenes and CBC5 |  |  |  | 
9 | nisin |  |  |  |  |  |  |  |  |  |  |  |  |  |  |  |  |  | 0.4 µg/mL | 6.4 µg/mL
